Experimental data taken from US20260042755A1, “GPR6 INVERSE AGONISTS” (MapLight Therapeutics, Inc., priority 2022, published 2026).
pIC50: −log10 of the molar value.

Assays:
GPR3 = molecular target: T1, GPR3 (Homo sapiens, UniProt P46089); test: GPR3 antagonist functional cAMP assay (LANCE Ultra cAMP TR-FRET, CHO cells stably expressing GPR3); format: cell-based
T1 construct: expressed in transfected cells; host or cells: CHO cells
In short: (§1)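 We measure cAMP by TR-FRET (665 nm) in cells held in glucose-containing Krebs-Ringer buffer with BSA and a PDE inhibitor, after a 45 min, 37 °C compound incubation. IC50s derive from a four-parameter logistic fit.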

GPR6 = molecular target: T2, GPR6 (Homo sapiens, UniProt P46095); test: GPR6 antagonist functional cAMP assay (LANCE Ultra cAMP TR-FRET, CHO cells stably expressing GPR6); format: cell-based
T2 construct: expressed in transfected cells; host or cells: CHO cells
T2 sequence (P46095 whole entry): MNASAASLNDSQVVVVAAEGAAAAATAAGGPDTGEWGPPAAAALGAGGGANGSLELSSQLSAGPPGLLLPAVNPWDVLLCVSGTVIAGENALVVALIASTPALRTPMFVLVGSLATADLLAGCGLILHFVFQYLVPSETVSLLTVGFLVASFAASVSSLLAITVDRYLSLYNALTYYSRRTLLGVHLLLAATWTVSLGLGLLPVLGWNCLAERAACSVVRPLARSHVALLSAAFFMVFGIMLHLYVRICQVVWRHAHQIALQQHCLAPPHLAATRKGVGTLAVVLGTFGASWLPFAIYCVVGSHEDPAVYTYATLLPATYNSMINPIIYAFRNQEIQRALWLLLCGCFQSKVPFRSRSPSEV
In short: as §1

[1] = CHO cells stably expressing GPR3, cAMP assay (Example 24)
[2] = CHO cells stably expressing GPR6, cAMP assay (Example 24)
[3] = procedure as described in Example 24
[4] = CHO cells stably expressing GPR3, cAMP assay
[5] = CHO cells stably expressing GPR6, cAMP assay

T1 sequence (P46089 whole entry, species assumed): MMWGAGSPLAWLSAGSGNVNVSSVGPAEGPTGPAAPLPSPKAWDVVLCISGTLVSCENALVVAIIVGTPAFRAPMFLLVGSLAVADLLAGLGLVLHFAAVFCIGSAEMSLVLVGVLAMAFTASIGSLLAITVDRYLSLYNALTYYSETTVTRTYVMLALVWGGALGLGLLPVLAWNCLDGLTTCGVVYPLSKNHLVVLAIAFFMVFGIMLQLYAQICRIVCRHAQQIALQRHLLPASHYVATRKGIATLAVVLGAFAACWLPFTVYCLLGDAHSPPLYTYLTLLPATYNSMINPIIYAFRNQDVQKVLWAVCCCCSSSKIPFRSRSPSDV

| SMILES | pIC50 (GPR3; [1]) | pIC50 (GPR6; [2]) | pIC50 (GPR3; procedure of Example 24) | pIC50 (GPR6; procedure of Example 24) | further results |
| --- | --- | --- | --- | --- | --- |
| COC(=O)N1CCc2nc(N3CCC(Oc4ccc(F)cc4F)CC3)c(-c3cnn(C4CCCCO4)c3)nc2C1 (stereo not shown) [Compound 125, methyl 2-[4-(2,4-difluorophenoxy)piperidin-1-yl]-3-[1-(oxan-2-yl)-1H-pyrazol-4-yl]-5H,6H,7H,8H-pyrido[3,4-b]pyrazine-6-carboxylate] | 4.52 to 6.00 | 6.00 to 7.00 | – | – | – |
| CC(=O)N1CCc2nc(N3CCC(Oc4ccc(F)cc4F)CC3)c(-c3cccc(=O)[nH]3)nc2C1 [Compound 33, 6-(6-acetyl-2-(4-(2,4-difluorophenoxy)piperidin-1-yl)-5,6,7,8-tetrahydropyrido[3,4-b]pyrazin-3-yl)pyridin-2(1H)-one] | – | – | – | – | pIC50 (GPR3; [3]): 4.52 to 6.00; pIC50 (GPR6; [3]): 6.00 to 7.00 |
| CC(=O)N1CCc2nc(N3CCC(C(O)c4ccc(F)cc4F)CC3)c(-c3cnn(C)c3)nc2C1 (stereo not shown) [Compound 545, 1-(2-{4-[(2,4-difluorophenyl)hydroxymethyl]-1-piperidyl}-3-(1-methyl-4-pyrazolyl)-5,6,7,8-tetrahydro-1,4,6-triaza-6-naphthyl)-1-ethanone] | – | – | – | – | pIC50 (GPR3; [4]): 4.52 to 6.00; pIC50 (GPR6; [5]): 6.00 to 7.00 |
| CC(C)(O)C(O)c1cc2nc(-c3cn[nH]c3)c(N3CCC(=Cc4ccc(F)cc4F)CC3)nc2cn1 (stereo not shown) [Compound 780, 1-(3-{4-[(2,4-difluorophenyl)methylene]-1-piperidyl}-2-(4-pyrazolyl)-1,4,6-triaza-7-naphthyl)-2-methyl-1,2-propanediol] | – | – | 6.00 to 7.00 | > 7.00 | – |
| CC(O)C(O)c1cc2nc(N3CCC(Oc4ccc(F)cc4F)CC3)c(-c3cnn(C)c3)nc2cn1 (stereo not shown) [Compound 401, 1-{2-[4-(2,4-difluorophenoxy)piperidin-1-yl]-3-(1-methyl-1H-pyrazol-4-yl)pyrido[3,4-b]pyrazin-7-yl}propane-1,2-diol] | 4.52 to 6.00 | 6.00 to 7.00 | – | – | – |
| COCC(=O)N1CCc2nc(N3CCC(Oc4ccc(F)cc4F)CC3)c(-c3cnn(C4CCCCO4)c3)nc2C1 (stereo not shown) [Compound 201, 1-{2-[4-(2,4-difluorophenoxy)piperidin-1-yl]-3-[1-(oxan-2-yl)-1H-pyrazol-4-yl]-5H,6H,7H,8H-pyrido[3,4-b]pyrazin-6-yl}-2-methoxyethan-1-one] | 4.52 to 6.00 | 4.52 to 6.00 | – | – | – |
| CC(C)OC(=O)N1CCc2nc(N3CCC(Oc4ccc(F)cc4F)CC3)c(-c3cnn(C4CCCCO4)c3)nc2C1 (stereo not shown) [Compound 156, propan-2-yl 2-[4-(2,4-difluorophenoxy)piperidin-1-yl]-3-[1-(oxan-2-yl)-1H-pyrazol-4-yl]-5H,6H,7H,8H-pyrido[3,4-b]pyrazine-6-carboxylate] | 4.52 to 6.00 | 4.52 to 6.00 | – | – | – |
| CCn1cc(-c2nc3c(nc2N2CCC(Oc4ccc(F)cc4F)CC2)CCN(S(=O)(=O)C(C)C)C3)cn1 [Compound 266, 4-(2,4-difluorophenoxy)-1-[3-(1-ethyl-1H-pyrazol-4-yl)-6-(propane-2-sulfonyl)-5H,6H,7H,8H-pyrido[3,4-b]pyrazin-2-yl]piperidine] | – | – | 4.52 to 6.00 | > 7.00 | – |
| COc1cncc(-c2nc3cnc(C(O)C(C)(C)O)cc3nc2N2CCN(Cc3ccc(F)cc3F)CC2)n1 (single isomer, unassigned) [Compound 94, 1-(2-(4-(2,4-difluorobenzyl)piperazin-1-yl)-3-(6-methoxypyrazin-2-yl)pyrido[3,4-b]pyrazin-7-yl)-2-methylpropane-1,2-diol] | 4.52 to 6.00 | 4.52 to 6.00 | – | – | – |
| Cn1cc(-c2nc3cnc(OCC(C)(C)O)cc3nc2N2CCC(Oc3ccc(F)cc3F)CC2)cn1 [Compound 696, 1-{2-[4-(2,4-difluorophenoxy)-1-piperidyl]-3-(1-methyl-4-pyrazolyl)-1,4,6-triaza-7-naphthyloxy}-2-methyl-2-propanol] | – | – | 4.52 to 6.00 | 6.00 to 7.00 | – |
| CN1CCc2nc(N3CCC(Oc4ccc(F)cc4F)CC3)c(-c3cn[nH]c3)nc2C1 [Compound 139, 4-(2,4-difluorophenoxy)-1-[6-methyl-3-(1H-pyrazol-4-yl)-5H,6H,7H,8H-pyrido[3,4-b]pyrazin-2-yl]piperidine] | 4.52 to 6.00 | 4.52 to 6.00 | – | – | – |
| CC(C)(O)[C@H](O)c1cc2nc(N3CCC(Oc4ccc(F)cc4F)CC3)c(-c3cnn(C4CC4)c3)nc2cn1 (single isomer, unassigned) [Compound 572] | – | – | – | – | pIC50 (GPR3; [4]): 4.52 to 6.00; pIC50 (GPR6; [5]): 6.00 to 7.00 |
| CCn1cc(-c2nc3c(nc2N2CCC(Oc4ccc(F)cc4F)CC2)CCN(C(=O)C2COCCO2)C3)cn1 (stereo not shown) [Compound 474, 4-(2,4-difluorophenoxy)-1-[6-(1,4-dioxane-2-carbonyl)-3-(1-ethyl-1H-pyrazol-4-yl)-5H,6H,7H,8H-pyrido[3,4-b]pyrazin-2-yl]piperidine] | 4.52 to 6.00 | > 7.00 | – | – | – |
| CC(=O)N1CCc2nc(N3CCC(C(F)(F)c4ccc(F)cc4F)CC3)c(-c3cnn(C)c3)nc2C1 [Compound 698, 1-(2-(4-((2,4-difluorophenyl)difluoromethyl)piperidin-1-yl)-3-(1-methyl-1H-pyrazol-4-yl)-7,8-dihydropyrido[3,4-b]pyrazin-6(5H)-yl)ethan-1-one] | – | – | 4.52 to 6.00 | 6.00 to 7.00 | – |
| Cn1cc(-c2nc3cnc(N)cc3nc2N2CCN(Cc3ccc(F)cc3F)CC2)cn1 [Compound 226, 2-{4-[(2,4-difluorophenyl)methyl]piperazin-1-yl}-3-(1-methyl-1H-pyrazol-4-yl)pyrido[3,4-b]pyrazin-7-amine] | 4.52 to 6.00 | > 7.00 | – | – | – |
| CC(C)(O)[C@H](O)c1cc2nc(N3CCN(Cc4ccccc4F)CC3)c(-c3cnn(C4CC4)c3)nc2cn1 (single isomer, unassigned) [Compound 732] | – | – | 4.52 to 6.00 | 6.00 to 7.00 | – |
| CNCC(O)c1cc2nc(N3CCC(Oc4ccc(F)cc4F)CC3)c(-c3cnn(C)c3)nc2cn1 (stereo not shown) [Compound 414, 1-{2-[4-(2,4-difluorophenoxy)piperidin-1-yl]-3-(1-methyl-1H-pyrazol-4-yl)pyrido[3,4-b]pyrazin-7-yl}-2-(methylamino)ethan-1-ol] | 4.52 to 6.00 | 6.00 to 7.00 | – | – | – |
| COc1ccc(CN2CCN(c3nc4c(nc3-c3cnn(C)c3)CN(C(C)=O)CC4)CC2)cn1 [Compound 345, 1-(2-{4-[(6-methoxypyridin-3-yl)methyl]piperazin-1-yl}-3-(1-methyl-1H-pyrazol-4-yl)-5H,6H,7H,8H-pyrido[3,4-b]pyrazin-6-yl)ethan-1-one] | – | – | 4.52 to 6.00 | 4.52 to 6.00 | – |
| CC(C)(O)Cc1cc2nc(N3CCC(Oc4ccc(F)cc4F)CC3)c(-c3cnn(C4CC4)c3)nc2cn1 [Compound 705, 1-{3-(1-cyclopropyl-4-pyrazolyl)-2-[4-(2,4-difluorophenoxy)-1-piperidyl]-1,4,6-triaza-7-naphthyl}-2-methyl-2-propanol] | – | – | 4.52 to 6.00 | 6.00 to 7.00 | – |
| Cn1cc(-c2nc3cnc(Cl)cc3nc2N2CCC(Oc3ccc(F)cc3F)CC2)cn1 [Compound 289, 7-chloro-2-(4-(2,4-difluorophenoxy)piperidin-1-yl)-3-(1-methyl-1H-pyrazol-4-yl)pyrido[3,4-b]pyrazine] | – | – | 4.52 to 6.00 | 4.52 to 6.00 | – |
| CC(C)(O)[C@](C)(O)c1cc2nc(N3CCC(Oc4ccc(F)cc4F)CC3)c(-c3cnn(C4CC4)c3)nc2cn1 (single isomer, unassigned) [Compound 664] | – | – | 4.52 to 6.00 | 6.00 to 7.00 | – |
| Fc1ccc(OC2CCN(c3nc4ccncc4nc3-c3ncc[nH]3)CC2)c(F)c1 [Compound 41, 4-(2,4-difluorophenoxy)-1-[3-(1H-imidazol-2-yl)pyrido[3,4-b]pyrazin-2-yl]piperidine] | – | – | – | – | pIC50 (GPR3; [3]): 4.52 to 6.00; pIC50 (GPR6; [3]): 4.52 to 6.00 |
| Fc1ccc(Cl)cc1CN1CCN(c2nc3ccncc3nc2-c2cn[nH]c2)CC1 [Compound 4, 1-[(5-chloro-2-fluorophenyl)methyl]-4-[3-(1H-pyrazol-4-yl)pyrido[3,4-b]pyrazin-2-yl]piperazine] | – | – | – | – | pIC50 (GPR3; [3]): 4.52 to 6.00; pIC50 (GPR6; [3]): 6.00 to 7.00 |
| Fc1ccc(OC2CCN(c3nc4cnccc4nc3-c3cn[nH]c3)CC2)c(F)c1 [Compound 100, 4-(2,4-difluorophenoxy)-1-[2-(1H-pyrazol-4-yl)pyrido[3,4-b]pyrazin-3-yl]piperidine] | 4.52 to 6.00 | 6.00 to 7.00 | – | – | – |
| CC(=O)N1CCc2nc(N3CCN(C(=O)c4ccc(F)cc4)CC3)c(-c3cnn(C)c3)nc2C1 [Compound 255, 1-{2-[4-(4-fluorobenzoyl)piperazin-1-yl]-3-(1-methyl-1H-pyrazol-4-yl)-5H,6H,7H,8H-pyrido[3,4-b]pyrazin-6-yl}ethan-1-one] | 4.52 to 6.00 | 4.52 to 6.00 | – | – | – |
| CC(=O)N1CCc2nc(N3CCC(Oc4ccc(F)cc4F)CC3)c(-c3cn[nH]c3C)nc2C1 [Compound 43, 1-{2-[4-(2,4-difluorophenoxy)piperidin-1-yl]-3-(5-methyl-1H-pyrazol-4-yl)-5H,6H,7H,8H-pyrido[3,4-b]pyrazin-6-yl}ethan-1-one] | – | – | – | – | pIC50 (GPR3; [3]): 4.52 to 6.00; pIC50 (GPR6; [3]): 6.00 to 7.00 |
| CC(C)(O)[C@](C)(O)c1cc2nc(N3CCC(Oc4ccc(F)cc4F)CC3)c(-c3cnn(C(F)F)c3)nc2cn1 (single isomer, unassigned) [Compound 655] | – | – | 4.52 to 6.00 | 6.00 to 7.00 | – |
| OCCNc1cc2nc(-c3cnn(CF)c3)c(N3CCN(Cc4ccc(F)cc4F)CC3)nc2cn1 [Compound 759, 2-(3-{4-[(2,4-difluorophenyl)methyl]-1-piperazinyl}-2-[1-(fluoromethyl)-4-pyrazolyl]-1,4,6-triaza-7-naphthylamino)ethanol] | – | – | 4.52 to 6.00 | 6.00 to 7.00 | – |
| CCn1cc(-c2nc3c(nc2N2CCC(Oc4ccc(F)cc4F)CC2)CCN(C(=O)C(O)CO)C3)cn1 (stereo not shown) [Compound 484, 1-{2-[4-(2,4-difluorophenoxy)piperidin-1-yl]-3-(1-ethyl-1H-pyrazol-4-yl)-5H,6H,7H,8H-pyrido[3,4-b]pyrazin-6-yl}-2,3-dihydroxypropan-1-one] | 4.52 to 6.00 | 6.00 to 7.00 | – | – | – |
